The test system of this experiment is T1, endo-1,4-β-xylanase.
T1 construct: gene GH10 xylanase; codon-optimised synthetic gene in pET26b(+); N-terminal PelB leader, C-terminal 6xHis, tags kept; ~81 kDa; E. coli BL21(DE3)
Briefly: fluorescence of released CMU (ex […] nm, em […] nm), Lineweaver-Burk. Format: biochemical, uncultured bacterium. The conditions noted are these: pH 7, 37°C, 50 mM sodium phosphate.

This note sets out measurements from PMC6314593, “Characterization of novel lignocellulose-degrading enzymes from the porcupine microbiome using synthetic metagenomics” (PLoS ONE, 2019).

The term Km denotes the substrate concentration at which the rate is half of its maximum. In the case of `Cc1cc(=O)oc2cc(O[C@@H]3OC[C@@H](O[C@@H]4OC[C@@H](O)[C@H](O)[C@H]4O)[C@H](O)[C@H]3O)c(Cl)cc12` [CMU-X2, 6-chloro-4-methylumbelliferyl xylobioside], the Km stood at 32 ± 4.72 µM.
